Results from patent US11046730B2, “Antimicrobial compositions” (The Regents of the University of California, priority 2016, dated 2021).
Bridge positions count the residues as written; N and C are the ends. Square brackets hold non-standard residues; d marks the D form. Peptide text beside a SMILES is read from it.

Assays:
Gram-positive bacteria [1] = experiment: minimum inhibitory concentration (MIC) assays against four types of Gram-positive bacteria; assay type: cell-based; conditions: for MIC: four Gram-positive bacteria studied, homologues as TFA salts; for antibiotic activity in MIC assays, result in words: Gram-positive bacteria, mostly compared with Arg10-teixobactin; for MIC values lower than those of Arg10-teixobactin (fold): relative to Arg10-teixobactin; for MIC values: four species of Gram-positive bacteria
Excerpt: The antibiotic activity of Arg10-teixobactin and homologues was investigated in minimum inhibitory concentration (MIC) assays against four types of Gram-positive bacteria, as well as control substances, in order to elucidate the importance of various functionalities within teixobactin analogues and guide the rational design of new antimicrobial compounds (as summarized in Tables 1, 2 and 3 (FIGS. 5A, 5B, and 5C respectively). These MIC studies used vancomycin as a positive control and the Gram-negative bacterium E. coli as a negative control.

Gram-positive bacteria [2] = conditions: literature structure-activity studies; cited from earlier work
[3] = gel formation / solubility; assay type: physicochemical; conditions: propensity to form a gel
Protocol: In addition, according to many embodiments of the invention, teixobactin homologues can be functionalized at position 9 to improve solubility for easier or more efficient drug administration. For example, Arg10-teixobactin has the propensity to form a gel at concentrations as low as 5 mg/mL. This poor solubility will hamper the ability of Arg10-teixobactin or any other teixobactin derivative to be used as a drug because it will impede intravenous administration. […] More specifically, in some embodiments of the invention the water solubility of teixobactin analogues can be improved by functionalization of position 9 with polyethylene glycol (PEG) derivatives. In one embodiment, Ala9 is replaced with a PEG-containing amino acid, such as Gln(PEG6OMe), the derivative of Glu, in which the side chain has been coupled to H2NCH2CH2(OCH2CH2)5OMe.

| Compound | antibiotic activity in MIC assays, result in words (Gram-positive bacteria [1]) | further results |
| --- | --- | --- |
| CC[C@H](C)[C@H](NC(=O)[C@@H](Cc1ccccc1)NC)C(=O)N[C@@H](CO)C(=O)N[C@H](CCC(N)=O)C(=O)N[C@@H](C(=O)N[C@H](C(=O)N[C@@H](CO)C(=O)N[C@H]1C(=O)N[C@@H](C)C(=O)N[C@@H](CCCNC(=N)N)C(=O)N[C@@H]([C@@H](C)CC)C(=O)O[C@H]1C)[C@@H](C)CC)[C@@H](C)CC [Arg10-teixobactin] | – | MIC (Gram-positive bacteria [1]): 1 to 4 µg/mL; activity relative to teixobactin in MIC assays (Gram-positive bacteria [2]): about an order of magnitude less active; concentration at which a gel forms [3]: ≥ 5000 µg/mL |
| CC[C@H](C)[C@H](N)C(=O)N[C@@H](CO)C(=O)N[C@H]1C(=O)N[C@@H](C)C(=O)N[C@@H](CCCNC(=N)N)C(=O)N[C@@H]([C@@H](C)CC)C(=O)O[C@H]1C [short-Arg10-teixobactin] (H-IS[dT]ARI; ester 3-C) | – | MIC (Gram-positive bacteria [1]): > 32 µg/mL |
| Ac-Δ1-5-Arg10-teixobactin | inactive | – |
| Ala3,Lys10-teixobactin | diminished the activity of position 10 lysine analogue | – |
| Ala7,Arg10-teixobactin | greatly diminished activity | – |
| Arg10Lys11-teixobactin | loss of activity | – |
| Chg6,Arg10,Chg11-teixobactin | slightly greater activity than Arg10-teixobactin | MIC values lower than those of Arg10-teixobactin (fold) (Gram-positive bacteria [1]): lower by a factor of two |
| D-Dap8,Arg10-teixobactin | comparable activity to Arg10-teixobactin | – |
| D-allo-Ile11,Arg10-teixobactin | half as active | – |
| Glu(PEG-Biotinyl)9,Lys10-teixobactin | – | MIC values (Gram-positive bacteria [1]): 2-16 micrograms/mL |
| Lys6Arg10-teixobactin | loss of activity | – |
| Lys9Arg10-teixobactin | – | antibiotic activity in MIC assays, result in words (Gram-positive bacteria [1]; listed as Lys9,Arg10-teixobactin): proven activity |
| Lys10-teixobactin | comparable to those of vancomycin | MIC values lower than those of Arg10-teixobactin (fold) (Gram-positive bacteria [1]): 2-4 times |
| Lys(Mca)9,Lys10-teixobactin | – | MIC values (Gram-positive bacteria [1]): 1-8 micrograms/mL |
| Orn10-teixobactin | excellent to satisfactory antimicrobial activity | – |
| dodecanoyl-Δ1-5-Arg10-teixobactin [lipobactin 1] | activity close to that of Arg10-teixobactin | – |
| ent-Arg10-teixobactin | comparable activity to Arg10-teixobactin | – |
